Activity data for 10 compounds are collected here from ChEMBL document CHEMBL5033989, “Nor-abietane Diterpenoids from Perovskia abrotanoides Roots with Anti-inflammatory Potential” (J Nat Prod, 2021).

Data set [1] concerns J774.A1. The data set is described as follows: Cytotoxicity against mouse J774.A1 cells assessed as antiproliferative activity at 12.5 to 50 uM incubated for 24 hrs by MTT assay relative to control. The data set is classed as cell-based. Particulars: j774.a1, 24 h, dose 12.5-50 µM.
For data set [2], the system named is J774.A1. Description: Inhibition of iNOS expression in LPS-stimulated mouse J774.A1 cells at 12.5 to 50 uM measured after […] by flow cytometry analysis relative to control. Format: functional, cell-based. Particulars: dose 12.5-50 µM. (In general: A flow cytometer gives signals particle by particle.)
Data set [3] relates to J774.A1. The data set is described as follows: Inhibition of LPS-induced NO release in mouse J774.A1 cells at 12.5 to 50 uM when treated with compound and LPS simultaneously measured after 24 hrs by Griess reagent based assay relative to control. The data set is classed as functional, cell-based. Particulars: dose 12.5-50 µM. (Griess reagent forms a coloured azo dye with nitrite.)

Data set [4] relates to J774.A1. Description: Cytotoxicity against mouse J774.A1 cells assessed as antiproliferative activity at 200 uM incubated for 24 hrs by MTT assay relative to control. Format: cell-based. The settings on record: j774.a1, 24 h. For orientation: Formazan colour is commonly taken as a measure of viable cells.
Data set [5] deals with J774.A1. The data set is described as follows: Inhibition of LPS-induced NO release in mouse J774.A1 cells at 5 uM when treated with compound and LPS simultaneously measured after 24 hrs by Griess reagent based assay relative to control. Set-up: scale not given: the % may be the effect or the level left. Format: functional.

Activity calls are given as the source filed them. No cut-off for these calls is given here.

As to `Cc1cc2c(cc1O)[C@@]13CCCC(C)(C)[C@@H]1[C@H](OC3)[C@@H]2O`, the Activity entry in data set [1] is “Toxic”.

In the case of `CC(CO)C1=C(O)C(=O)c2c(ccc3c2[C@H](O)CCC3(C)C)C1=O` (stereo not given in full), the Activity result in data set [1] was “Non-Toxic”. For the same compound, the result in data set [2] and in data set [3] was Active.

As to `CC(C)c1cc2ccc3c(c2c(O)c1O)C=CC(=O)C3(C)C`, in data set [1], the Activity result is listed as “Non-Toxic”. The result in data set [2] and in data set [3] was Active.

As to `Sc1ncnc2nc[nH]c12` [MERCAPTOPURINE ANHYDROUS], the Activity in data set [4] was 27.86%.

On to `CC1=C[C@]2(O)CC[C@H]3C(C)(C)CCC[C@@]3(O)C2=CC1=O`, for which, in data set [1], the Activity entry is recorded as “Non-Toxic”. The result in data set [2] and in data set [3] was Active.

For `Cc1cc2c(cc1O)C[C@]1(O)CCCC(C)(C)[C@@H]1CC2`, the Activity entry in data set [1] is listed as “Non-Toxic”. In addition, the result in data set [2] and in data set [3] was Active.

For the compound `CC1=C[C@@]2(O)CC[C@H]3C(C)(C)CCC[C@]3(CO)C2=CC1=O`, the Activity entry in data set [1] is on record as “Toxic”.

Take `COC(=O)[C@@H](N)CCCNC(=N)N[N+](=O)[O-].Cl`: the Activity in data set [5] came out at 57%.

Turning to `CC1(C)CCC[C@@]23CO[C@@H](C[C@@H]12)c1cc(O)c(O)cc13`, the Activity entry in data set [1] is “Toxic”.

As to `Cc1cc2c(cc1O)[C@@]13CCC(=O)C(C)(C)[C@@H]1C[C@@H]2OC3`, the Activity result in data set [1] was “Non-Toxic”. For the same compound, the outcome in data set [2] and in data set [3] was Active.
